Measurements taken from publication PMC5357620, “The NiFe Hydrogenases of the Tetrachloroethene-Respiring Epsilonproteobacterium Sulfurospirillum multivorans: Biochemical Studies and Transcription Analysis” (Frontiers in Microbiology, 2017).

Molecular target: T1, membrane-bound hydrogenase (MBH, HydABC) (Sulfurospirillum multivorans, UniProt A0AA86ALJ1+A0AA86ANH9+A0AA86DZD7)
T1 construct: gene hydB; HydA TAT signal peptide cleaved; predicted HydB 62, HydA 34, HydC 26 kDa; dimer of heterotrimers, about 270 kDa; with Periplasmic [NiFe] hydrogenase, large subunit
T1 sequence (A0AA86DZD7 1-561): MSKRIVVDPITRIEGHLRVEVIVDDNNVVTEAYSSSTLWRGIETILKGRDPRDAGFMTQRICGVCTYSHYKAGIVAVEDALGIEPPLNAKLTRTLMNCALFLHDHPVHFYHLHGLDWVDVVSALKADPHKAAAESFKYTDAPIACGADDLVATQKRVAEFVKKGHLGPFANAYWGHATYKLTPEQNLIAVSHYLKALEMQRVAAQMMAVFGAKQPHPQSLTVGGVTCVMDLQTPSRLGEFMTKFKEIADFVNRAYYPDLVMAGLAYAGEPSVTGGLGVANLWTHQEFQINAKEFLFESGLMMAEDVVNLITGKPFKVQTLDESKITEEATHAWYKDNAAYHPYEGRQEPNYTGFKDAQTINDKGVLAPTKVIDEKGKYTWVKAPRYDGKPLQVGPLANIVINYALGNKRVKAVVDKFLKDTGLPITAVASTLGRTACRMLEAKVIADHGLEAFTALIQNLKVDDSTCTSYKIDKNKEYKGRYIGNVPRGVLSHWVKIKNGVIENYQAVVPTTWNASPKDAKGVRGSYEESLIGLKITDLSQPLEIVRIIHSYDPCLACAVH
T1 sequence (A0AA86ALJ1 68-385): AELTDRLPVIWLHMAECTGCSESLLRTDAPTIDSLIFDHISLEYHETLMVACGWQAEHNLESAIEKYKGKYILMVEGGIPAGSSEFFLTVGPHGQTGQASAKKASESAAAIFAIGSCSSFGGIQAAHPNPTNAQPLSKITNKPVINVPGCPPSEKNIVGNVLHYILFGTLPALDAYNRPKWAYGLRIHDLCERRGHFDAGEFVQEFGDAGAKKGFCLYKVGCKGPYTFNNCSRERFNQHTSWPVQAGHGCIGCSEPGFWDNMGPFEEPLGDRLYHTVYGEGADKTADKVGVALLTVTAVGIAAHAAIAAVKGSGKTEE
T1 sequence (A0AA86ANH9 1-225): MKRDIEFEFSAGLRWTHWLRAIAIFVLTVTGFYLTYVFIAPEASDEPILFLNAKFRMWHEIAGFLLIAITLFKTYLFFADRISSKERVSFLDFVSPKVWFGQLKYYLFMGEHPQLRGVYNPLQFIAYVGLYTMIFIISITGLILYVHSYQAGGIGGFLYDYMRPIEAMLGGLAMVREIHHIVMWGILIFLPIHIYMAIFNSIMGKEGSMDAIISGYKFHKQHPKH
Assay: spectrophotometric H2-dependent DMN reduction, […] nm minus […] nm
Type: biochemical
Details: H2 as electron donor; 0.2 mM DMN; 50 mM glycylglycine pH 8.0; 0.5 mM DTT; electron acceptor, presumably via HydC cytochrome b; partially purified enzyme

## CC1=C(C)C(=O)c2ccccc2C1=O [DMN, 2,3-dimethyl-1,4-naphthoquinone]
  spectrophotometric H2-dependent DMN reduction, 270 nm minus 290 nm: both fractions showed activity with DMN as electron acceptor
